Data taken from the supplement of paper PMC10307832.

Assays:
Assay in all cases: relative viability (nuclei count vs DMSO), 5 days (fraction); higher = more cells survive
XMD8-85 + Lapatinib = compound: CN1CCN(CC1)C2=CC(=C(C=C2)NC3=NC=C4C(=N3)N(C5=CC=CC=C5C(=O)N4C)C)OC [XMD8-85] + CS(=O)(=O)CCNCc1ccc(-c2ccc3ncnc(Nc4ccc(OCc5cccc(F)c5)c(Cl)c4)c3c2)o1 [Lapatinib] (partner 2 µM)
In short: (§1)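 Relative viability was taken as the ratio of nuclei in treated wells to nuclei in vehicle wells. Lung cancer cell lines in 1536-well plates received compounds by pin tool one day after seeding, either one drug alone or a fixed anchor-drug dose plus five library-drug doses (not always all listed) in √10 steps. Nuclei were counted on 4× images after 5 days of treatment, and values are medians of duplicate plates.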

XMD8-85 + Pictilisib = compound: CN1CCN(CC1)C2=CC(=C(C=C2)NC3=NC=C4C(=N3)N(C5=CC=CC=C5C(=O)N4C)C)OC [XMD8-85] + CS(=O)(=O)N1CCN(Cc2cc3nc(-c4cccc5[nH]ncc45)nc(N4CCOCC4)c3s2)CC1 [Pictilisib] (partner 1 µM)
In short: as §1

4EGI-1 + Lapatinib = compound: O=C(O)C(Cc1ccccc1[N+](=O)[O-])=NNc1nc(-c2ccc(Cl)c(Cl)c2)cs1 (mixture of isomers) [4EGI-1] + CS(=O)(=O)CCNCc1ccc(-c2ccc3ncnc(Nc4ccc(OCc5cccc(F)c5)c(Cl)c4)c3c2)o1 [Lapatinib] (partner 2 µM)
In short: as §1

4EGI-1 + Alpelisib = compound: O=C(O)C(Cc1ccccc1[N+](=O)[O-])=NNc1nc(-c2ccc(Cl)c(Cl)c2)cs1 (mixture of isomers) [4EGI-1] + Cc1nc(NC(=O)N2CCC[C@H]2C(N)=O)sc1-c1ccnc(C(C)(C)C(F)(F)F)c1 [Alpelisib] (partner 2 µM)
In short: as §1

Cell Line	relative viability (XMD8-85 + Lapatinib; first compound 0.08 µM)	relative viability (XMD8-85 + Lapatinib; first compound 0.253 µM)	relative viability (XMD8-85 + Lapatinib; first compound 0.8 µM)	relative viability (XMD8-85 + Lapatinib; first compound 2.53 µM)	relative viability (XMD8-85 + Lapatinib; first compound 8 µM)	relative viability (XMD8-85 + Pictilisib; first compound 0.08 µM)	relative viability (XMD8-85 + Pictilisib; first compound 0.253 µM)	relative viability (XMD8-85 + Pictilisib; first compound 0.8 µM)	relative viability (XMD8-85 + Pictilisib; first compound 2.53 µM)	relative viability (XMD8-85 + Pictilisib; first compound 8 µM)	relative viability (4EGI-1 + Lapatinib; first compound 0.5 µM)	relative viability (4EGI-1 + Lapatinib; first compound 5 µM)	relative viability (4EGI-1 + Lapatinib; first compound 15.81 µM)	relative viability (4EGI-1 + Lapatinib; first compound 50 µM)	relative viability (4EGI-1 + Alpelisib; first compound 0.5 µM)	relative viability (4EGI-1 + Alpelisib; first compound 5 µM)	relative viability (4EGI-1 + Alpelisib; first compound 15.81 µM)	relative viability (4EGI-1 + Alpelisib; first compound 50 µM)	relative viability (4EGI-1 + Lapatinib; first compound 1.581 µM)	relative viability (4EGI-1 + Alpelisib; first compound 1.581 µM)
LU99A	1.11	0.96	1.05	1.06	0.882	0.32	0.302	0.339	0.367	0.33	1.04	1.08	0.739	0.214	0.613	0.538	0.539	0.171		
PC-14	0.32	0.398	0.276	0.38	0.268	0.618	0.521	0.661	0.681	0.462	0.355	0.371		0.296	1.05	0.906		0.941	0.353	
SK-MES-1	0.443	0.493	0.446	0.464	0.419	0.349	0.371	0.342	0.383	0.375	0.51	0.479	0.459	0.395	0.968	0.911	0.773	0.827	0.419	0.735
NCI-H358	0.438	0.52	0.455	0.486	0.405	0.353	0.366	0.359	0.362	0.304	0.483	0.603	0.395	0.211	0.966	0.96	0.653	0.175	0.437	0.817
NCI-H2347	0.892	0.958	0.9	1.02	0.771	0.637	0.531	0.555	0.437	0.604	0.898	0.909	0.855	0.844	1.2	1.04	0.965	0.978	0.746	0.953
NCI-H1395	0.9	1.11	0.927	0.95	0.679	0.699	0.649	0.634	0.613	0.484	0.975	1.18	0.832	0.413	1.19	1.52	1.07	0.685		
SK-LU-1	0.549	0.892	0.852	1.07	0.699	0.397		0.569	0.6	0.522	0.972	0.803	0.698	0.487	1.23	1.26	0.806	0.232	1.06	1.01
NCI-H650	0.867	0.858	1.04	0.876			0.892	0.846	0.8	0.524	1.28	1.12	0.918	0.652	1.15	1.25	1.15	0.92		
